Like-named read-outs stand apart in the source and are kept apart here.
Columns and labels:
[1] = biological target: T1, human 5-HT6 subtype of receptor (Homo sapiens, UniProt P50406); conditions: read-out: 5-HT6 receptor affinity (Ki); radioligand 3H-LSD, 60 minute incubation at 37° C.
[2] = biological target: T1, human 5-HT6 subtype of receptor; experiment: biochemical
[3] = biological target: T2, human 5-HT6 receptors (Homo sapiens, UniProt P50406); experiment: functional adenylyl cyclase assay: cAMP accumulation in stably transfected HEK293 cells; type: cell-based; conditions: 1 uM serotonin
T2 construct: expressed in transfected cells; host or cells: HEK293 (stably transfected, G418 selection)
Experimental: The antagonist property of the compounds at the human 5-HT6 receptors was determined by testing their effect on cAMP accumulation in stably transfected HEK293 cells. […] A compound that is an agonist will show an increase in cAMP production and a compound that is an antagonist will block the agonist effect Human 5-HT6 receptors were cloned and stably expressed in HEK293 cells. These cells were plated in 6 well plates in DMEM/F12 media with 10% fetal calf serum (FCS) and 500 ug/mL G418 and incubated at 37° C. in a CO2 incubator. The cells were allowed to grow to about 70% confluence before initiation of the experiment. On the day of the experiment, the culture media was removed, and the cells were washed once with serum free medium (SFM). Two mL of SFM+IBMX media was added and incubated at 37° C. for 10 min. […] The tubes were centrifuged for 5 min at 4° C., and the supernatants were stored at 4° C. until assayed. cAMP content was determined by EIA (enzyme-immunoassay) using the Amersham Biotrak cAMP EIA kit (Amersham RPN 225). […] Briefly, cAMP is determined by the competition between unlabeled cAMP and a fixed quantity of peroxidase-labelled cAMP for the binding sites on anti-cAMP antibody. […] The reaction is stopped by the addition of 100 uL 1.0 M sulphuric acid and the resultant color read by a microtitre plate spectrophotometer at 450 nM within 30 minutes.

[4] = test system: a number of other receptors including other serotonin receptors such as 5-HT1A and 5-HT7; experiment: selectivity over other receptors; conditions: 5-HT6 versus other receptors incl. 5-HT1A and 5-HT7

T1 sequence (P50406 whole entry): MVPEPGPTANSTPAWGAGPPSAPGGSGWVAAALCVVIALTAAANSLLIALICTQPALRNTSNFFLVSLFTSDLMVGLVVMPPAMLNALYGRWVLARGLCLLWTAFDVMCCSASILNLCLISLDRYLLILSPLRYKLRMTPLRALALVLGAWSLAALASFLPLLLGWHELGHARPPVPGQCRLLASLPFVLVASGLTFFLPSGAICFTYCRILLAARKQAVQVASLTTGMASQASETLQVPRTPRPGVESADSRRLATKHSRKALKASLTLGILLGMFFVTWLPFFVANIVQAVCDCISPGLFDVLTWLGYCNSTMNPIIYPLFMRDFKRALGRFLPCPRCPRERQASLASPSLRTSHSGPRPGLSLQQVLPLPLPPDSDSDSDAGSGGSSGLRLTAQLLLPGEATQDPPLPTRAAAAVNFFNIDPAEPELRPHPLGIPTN
T2 sequence (P50406 whole entry): as above

Row | SMILES | Ki [1] [nM] | Ki [2] [nM] | IC50 [3] [nM] | antagonist property at the 5-HT6 receptor [3] | selectivity over other receptors [4]
1 | O=S(=O)(c1cccc2ccccc12)n1ccc2ccc(C3CCN4CCCC4C3)cc21 [Example 5F (12), 6-[(7-R,S)(8a-R,S)-Octahydroindolizin-7-yl]-1-naphthylsulfonyl-indole] | 0.8 |  |  |  | 
2 | O=S(=O)(c1cccc2ccccc12)n1ccc2ccc(C3CCN4CCCC4C3)cc21 (single isomer, unassigned) [Example 5F (13)] |  | 0.7 |  |  | 
3 | O=S(=O)(c1cccc2ccccc12)n1ccc2ccc(N3CCN4CCCC4C3)cc21 (stereo not drawn) [Example 4a, 6-[6,5-Bicyclopiperazinyl]-1-[1-naphthylenesulphonyl]indole] | 0.2 |  | 7.2 | competitive antagonist | good selectivity

Source: patent US6897215B1, “Compounds having 5-HT6 receptor antagonist activity” (NPS Allelix Corp., priority 1999, dated 2005)
